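Growth conditions: 96-well plates. Treatment: test compound, 48 hours, 5 concentrations. Analysis: linear interpolation between bracketing concentrations; unreached endpoints set to highest concentration. GI50 marks 50% less growth.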 Active and inactive are the calls of the source. Rule as the data show it: active = GI50 up to about 1.1 µM and inactive = higher.
Columns and labels:
Assay in all cases: NCI-60 cell line screen, 48 h
786-0 = system: 786-0
A498 = system: A498
A549 = system: A549
ACHN = system: ACHN
BT-549 = system: BT-549
CAKI-1 = system: CAKI-1
CCRF-CEM = system: CCRF-CEM
COLO 205 = system: COLO 205
DU-145 = system: DU-145
EKVX = system: EKVX
HCC 2998 = system: HCC 2998
HCT-116 = system: HCT-116
HCT-15 = system: HCT-15
HL-60 = system: HL-60
HOP-62 = system: HOP-62
HOP-92 = system: HOP-92
HT-29 = system: HT-29
Hs-578T = system: Hs-578T
IGROV-1 = system: IGROV-1
K562 = system: K562
KM12 = system: KM12
LOX IMVI = system: LOX IMVI
M14 = system: M14
MCF7 = system: MCF7
MDA-MB-231 = system: MDA-MB-231
MDA-MB-435 = system: MDA-MB-435
MDA-N = system: MDA-N
MOLT-4 = system: MOLT-4
Malme-3M = system: Malme-3M
NCI-H23 = system: NCI-H23
NCI-H460 = system: NCI-H460
NCI-H522 = system: NCI-H522
NCI/ADR-RES = system: NCI/ADR-RES
OVCAR-3 = system: OVCAR-3
OVCAR-5 = system: OVCAR-5
OVCAR-8 = system: OVCAR-8
PC-3 = system: PC-3
RPMI-8226 = system: RPMI-8226
RXF 393 = system: RXF 393
SF-268 = system: SF-268
SF-295 = system: SF-295
SF-539 = system: SF-539
SK-MEL-28 = system: SK-MEL-28
SK-MEL-2 = system: SK-MEL-2
SK-MEL-5 = system: SK-MEL-5
SK-OV-3 = system: SK-OV-3
SN12C = system: SN12C
SNB-19 = system: SNB-19
SNB-75 = system: SNB-75
SR = system: SR
SW-620 = system: SW-620
T47D = system: T47D
TK-10 = system: TK-10
U-251 = system: U-251
UACC-257 = system: UACC-257
UACC-62 = system: UACC-62
UO-31 = system: UO-31
NCI-H226 = system: NCI-H226
OVCAR-4 = system: OVCAR-4

In the case of CC1(C)[C@H]2CC[C@](C)(C2)[C@]1(S)Cc1ccccn1, the GI50 (786-0) is reported as 27 µM (inactive), the GI50 (A498) is reported as > 100 µM (inactive) and the GI50 (A549) is reported as 42.7 µM (inactive). For the same compound, the GI50 (ACHN) was 54.2 µM (inactive), the GI50 (BT-549) was 90.4 µM (inactive) and the GI50 (CAKI-1) was 57.1 µM (inactive). For the same compound, the GI50 (CCRF-CEM) was 5 µM (inactive), the GI50 (COLO 205) was 34.3 µM (inactive) and the GI50 (DU-145) was 22.4 µM (inactive). For the same compound, the GI50 (EKVX) was 46.5 µM (inactive), the GI50 (HCC 2998) was 18.5 µM (inactive) and the GI50 (HCT-116) was 32.8 µM (inactive). For the same compound, the GI50 (HCT-15) was 41.7 µM, the GI50 (HL-60) was 11.2 µM (inactive) and the GI50 (HOP-62) was 29.6 µM (inactive). The GI50 (HOP-92) was 34.5 µM (inactive), the GI50 (HT-29) was 24.9 µM (inactive) and the GI50 (Hs-578T) was 57.8 µM (inactive). The GI50 (IGROV-1) was 30.8 µM (inactive), the GI50 (K562) was 26.3 µM (inactive) and the GI50 (KM12) was 42.9 µM (inactive). For the same compound, the GI50 (LOX IMVI) was 17.3 µM (inactive), the GI50 (M14) was 84.1 µM (inactive) and the GI50 (MCF7) was 32.5 µM (inactive). For the same compound, the GI50 (MDA-MB-231) was 37 µM (inactive), the GI50 (MDA-MB-435) was 26.3 µM (inactive) and the GI50 (MDA-N) was 39.3 µM (inactive). The GI50 (MOLT-4) was 15.3 µM (inactive), the GI50 (Malme-3M) was 46.1 µM (inactive) and the GI50 (NCI-H23) was 44.6 µM (inactive). The GI50 (NCI-H460) was 27.2 µM (inactive), the GI50 (NCI-H522) was 65.9 µM (inactive) and the GI50 (NCI/ADR-RES) was 50.5 µM (inactive). For the same compound, the GI50 (OVCAR-3) was 21.7 µM (inactive), the GI50 (OVCAR-5) was 88.9 µM (inactive) and the GI50 (OVCAR-8) was 17.5 µM (inactive). The GI50 (PC-3) was 21.7 µM (inactive), the GI50 (RPMI-8226) was 21.5 µM (inactive) and the GI50 (RXF 393) was 26.7 µM (inactive). For the same compound, the GI50 (SF-268) was 39.7 µM (inactive), the GI50 (SF-295) was 26.4 µM (inactive) and the GI50 (SF-539) was > 100 µM (inactive). The GI50 (SK-MEL-28) was > 100 µM (inactive), the GI50 (SK-MEL-2) was 20.8 µM (inactive) and the GI50 (SK-MEL-5) was 21.8 µM (inactive). For the same compound, the GI50 (SK-OV-3) was 29.8 µM (inactive), the GI50 (SN12C) was 56.8 µM (inactive) and the GI50 (SNB-19) was > 100 µM (inactive). The GI50 (SNB-75) was 23.9 µM (inactive), the GI50 (SR) was 18.1 µM (inactive) and the GI50 (SW-620) was 36.3 µM (inactive). For the same compound, the GI50 (T47D) was 24.5 µM (inactive), the GI50 (TK-10) was 32.4 µM (inactive) and the GI50 (U-251) was 14.4 µM (inactive). The GI50 (UACC-257) was 25.6 µM (inactive), the GI50 (UACC-62) was 67.8 µM (inactive) and the GI50 (UO-31) was > 100 µM (inactive).

In the case of C[N+]1(C)[C@@H]2CC[C@H]1C[C@@H](OC(=O)C(CO)c1ccccc1)C2 (some centres not stated) [ATROPINE METHYLBROMIDE], the GI50 (786-0) is reported as > 100 µM (inactive), the GI50 (A498) is reported as > 100 µM (inactive) and the GI50 (A549) is reported as > 100 µM (inactive). For the same compound, the GI50 (ACHN) was > 100 µM (inactive), the GI50 (BT-549) was > 100 µM (inactive) and the GI50 (CAKI-1) was > 100 µM (inactive). The GI50 (CCRF-CEM) was > 100 µM (inactive), the GI50 (COLO 205) was > 100 µM (inactive) and the GI50 (DU-145) was > 100 µM (inactive). For the same compound, the GI50 (EKVX) was > 100 µM (inactive), the GI50 (HCT-116) was > 100 µM (inactive) and the GI50 (HCT-15) was > 100 µM. The GI50 (HOP-62) was > 100 µM (inactive), the GI50 (HT-29) was > 100 µM (inactive) and the GI50 (Hs-578T) was > 100 µM (inactive). For the same compound, the GI50 (IGROV-1) was > 100 µM (inactive), the GI50 (K562) was > 100 µM (inactive) and the GI50 (KM12) was > 100 µM (inactive). The GI50 (LOX IMVI) was > 100 µM (inactive), the GI50 (M14) was > 100 µM (inactive) and the GI50 (MCF7) was > 100 µM (inactive). For the same compound, the GI50 (MDA-MB-231) was > 100 µM (inactive), the GI50 (MDA-MB-435) was > 100 µM (inactive) and the GI50 (MDA-N) was > 100 µM (inactive). For the same compound, the GI50 (MOLT-4) was > 100 µM (inactive), the GI50 (Malme-3M) was > 100 µM (inactive) and the GI50 (NCI-H226) was > 100 µM (inactive). For the same compound, the GI50 (NCI-H23) was > 100 µM (inactive), the GI50 (NCI-H522) was > 100 µM (inactive) and the GI50 (NCI/ADR-RES) was > 100 µM (inactive). For the same compound, the GI50 (OVCAR-3) was > 100 µM (inactive), the GI50 (OVCAR-4) was > 100 µM (inactive) and the GI50 (OVCAR-5) was > 100 µM (inactive). The GI50 (OVCAR-8) was > 100 µM (inactive), the GI50 (PC-3) was > 100 µM (inactive) and the GI50 (RPMI-8226) was > 100 µM (inactive). For the same compound, the GI50 (RXF 393) was > 100 µM (inactive), the GI50 (SF-268) was > 100 µM (inactive) and the GI50 (SF-295) was > 100 µM (inactive). For the same compound, the GI50 (SF-539) was > 100 µM (inactive), the GI50 (SK-MEL-28) was > 100 µM (inactive) and the GI50 (SK-MEL-2) was > 100 µM (inactive). The GI50 (SK-MEL-5) was > 100 µM (inactive), the GI50 (SK-OV-3) was > 100 µM (inactive) and the GI50 (SN12C) was > 100 µM (inactive). For the same compound, the GI50 (SNB-19) was > 100 µM (inactive), the GI50 (SNB-75) was > 100 µM (inactive) and the GI50 (SR) was > 100 µM (inactive). For the same compound, the GI50 (SW-620) was > 100 µM (inactive), the GI50 (T47D) was > 100 µM (inactive) and the GI50 (TK-10) was > 100 µM (inactive). For the same compound, the GI50 (U-251) was > 100 µM (inactive), the GI50 (UACC-257) was > 100 µM (inactive) and the GI50 (UACC-62) was > 100 µM (inactive). The GI50 (UO-31) was > 100 µM (inactive).

Nc1nc2c(c(-c3ccccc3Cl)n1)COC/C2=C\c1ccccc1Cl was tested, and the GI50 (786-0) was 17.2 µM (inactive), the GI50 (A498) was 16.4 µM (inactive) and the GI50 (ACHN) was 17.9 µM (inactive). For the same compound, the GI50 (BT-549) was 16 µM (inactive), the GI50 (CAKI-1) was 16.3 µM (inactive) and the GI50 (CCRF-CEM) was 11.7 µM (inactive). For the same compound, the GI50 (COLO 205) was 16.3 µM (inactive), the GI50 (DU-145) was 16.9 µM (inactive) and the GI50 (EKVX) was 18.3 µM (inactive). For the same compound, the GI50 (HCC 2998) was 19.5 µM (inactive), the GI50 (HCT-116) was 15.8 µM (inactive) and the GI50 (HCT-15) was 15.9 µM. For the same compound, the GI50 (HL-60) was 3.08 µM (inactive), the GI50 (HOP-62) was 18.1 µM (inactive) and the GI50 (HOP-92) was 14.8 µM (inactive). For the same compound, the GI50 (Hs-578T) was 21.8 µM (inactive), the GI50 (IGROV-1) was 15.8 µM (inactive) and the GI50 (K562) was 12.2 µM (inactive). For the same compound, the GI50 (KM12) was 17.9 µM (inactive), the GI50 (LOX IMVI) was 18.7 µM (inactive) and the GI50 (M14) was 15.7 µM (inactive). For the same compound, the GI50 (MCF7) was 14.5 µM (inactive), the GI50 (MDA-MB-231) was 16.9 µM (inactive) and the GI50 (MDA-MB-435) was 10.3 µM (inactive). For the same compound, the GI50 (MDA-N) was 10.9 µM (inactive), the GI50 (MOLT-4) was 12.9 µM (inactive) and the GI50 (NCI-H226) was 18.8 µM (inactive). For the same compound, the GI50 (NCI-H23) was 17.1 µM (inactive), the GI50 (NCI-H460) was 18.6 µM (inactive) and the GI50 (NCI-H522) was 14.6 µM (inactive). For the same compound, the GI50 (NCI/ADR-RES) was 16.8 µM (inactive), the GI50 (OVCAR-3) was 17.4 µM (inactive) and the GI50 (OVCAR-4) was 19.7 µM (inactive). For the same compound, the GI50 (OVCAR-5) was 17.2 µM (inactive), the GI50 (OVCAR-8) was 16 µM (inactive) and the GI50 (PC-3) was 14.3 µM (inactive). For the same compound, the GI50 (RPMI-8226) was 10.6 µM (inactive), the GI50 (RXF 393) was 16 µM (inactive) and the GI50 (SF-268) was 16.9 µM (inactive). For the same compound, the GI50 (SF-295) was 14.3 µM (inactive), the GI50 (SF-539) was 18.2 µM (inactive) and the GI50 (SK-MEL-2) was 16.9 µM (inactive). For the same compound, the GI50 (SK-MEL-5) was 16.4 µM (inactive), the GI50 (SK-OV-3) was 16.1 µM (inactive) and the GI50 (SN12C) was 16.6 µM (inactive). The GI50 (SNB-19) was 15.7 µM (inactive), the GI50 (SNB-75) was 15.9 µM (inactive) and the GI50 (SR) was 5.16 µM (inactive). The GI50 (SW-620) was 16.6 µM (inactive), the GI50 (T47D) was 17.1 µM (inactive) and the GI50 (TK-10) was 17.6 µM (inactive). For the same compound, the GI50 (U-251) was 16.8 µM (inactive), the GI50 (UACC-257) was 18.7 µM (inactive) and the GI50 (UACC-62) was 16 µM (inactive). For the same compound, the GI50 (UO-31) was 17.1 µM (inactive).
